In patent publication US20230211020A1, “TREATMENT OF INFECTIONS” (ACT Therapeutics Ltd, priority 2020, published 2023):

Assays:
[1] = Tissue specific uptake of Evans Blue in thigh muscle with ACT (Example 2, Study 1); type: in vivo; conditions: for EB ratio of the left (treated) to right (untreated) thigh muscle, average±SD: 30 min after treatment; for increase in the uptake upon ACT treatment: US insonated tissue vs. untreated
Procedure: The tissue specific uptake of Evans Blue (EB, a fluorescent dye) has been investigated in a mouse model. Under physiologic conditions, the endothelium is impermeable to albumin, and Evans blue bound albumin remains confined within blood vessels. Thus, Evans blue is often used as a model compound in drug delivery studies [Bohmer et al., J Controlled Release, 148, Issue 1, 2010, pp. 18-24].
Female Balb/c nude mice were used. Before treatment, the mice were administered surgical anesthesia by subcutaneous injection of a mix of Fentanyl (0.05 mg/kg), Midazolam (5 mg/kg), and Medetomidine (0.5 mg/kg). An intravenous cannula (BD Neoflon™ 24 GA) was placed in the tail vein. Patency was verified by injection of a slight amount of 0.9% sodium chloride for injection after which a small amount of heparin (10 U/ml) was injection to prevent clotting. The hub of the cannula was filled with 0.9% sodium chloride for injection to eliminate any dead space and closed with a cap. The cannula was secured to the tail with surgical tape.
Evans Blue solution (50 mg EB/kg) was injected i.v. followed immediately by 2 ml/kg of the cluster dispersion as detailed in Example 1. Two groups where compared (N=3 for each group): 1) EB+cluster dispersion and 2) EB+cluster dispersion+Activation and Enhancement ultrasound insonation.
The left hind limb of the mouse was placed in a water bath with two US transducers poised for insonation of the left thigh. Ultrasound Activation insonation was provided by a VScan clinical ultrasound scanner (GE Healthcare) with a 2 MHz probe for 45 seconds (MI=0.8) starting from the injection time. This was immediately followed by the Enhancement step comprising 5 minutes 500 kHz ultrasound insonation (MI=0.2) using a single element transducer (Imasonic SAS). Thirty minutes after treatment the animals were sacrificed, tissue samples; thigh muscle from the treated (left) leg and thigh muscle from the contra lateral untreated leg, were harvested and Evans Blue content extracted and quantified. The concentration in the treated thigh muscle was divided by the concentration in the untreated thigh muscle for each animal (matched pair) to provide a dimensionless ratio of the increased uptake in the treated muscle. A one-way ANOVA was applied to the data.

[2] = tested on: methicillin susceptible strain of Staphylococcus aureus; assay: Neutropenic staphylococcal thigh infection model, Levofloxacin with or without ACT (Example 3); type: in vivo; conditions: mice, dose-response study, read-out: ED50 (dose that induces a half maximal decline in bacterial density)
Text: An established experimental model of staphylococcal thigh infection in a neutropenic thigh infection model was used and neutropenia will be induced with cyclophosphamide. The thigh infection model provides a sensitive experimental system for initial studies of antimicrobial efficacy in a mammalian system. This model is the most standardised for the evaluation of antimicrobial-microbial interactions combined with antimicrobial pharmacokinetics assessed in serum and tissues samples.
The challenge isolate was methicillin susceptible strain of Staphylococcus aureus is and both thighs were inoculated. Treatment was initiated 2 h after inoculation, thighs was harvested after 26 h and the bacterial density (colony forming units, CFU) in the excised tissue was determined. An initial dose finding study was performed to define the LEV ED50 (the dose that induces a half maximal decline in bacterial density). Within the study, LEV was be dosed intraperitoneal at 20 mg/kg.
The cluster composition investigated was as detailed in Example 1. […]
The bacterial density in the thighs harvested from the various groups was determined by growing a diluted sample of the excised tissue, homogenized in sterile PBS, on a plate with growth medium and counting the number of CFU.

[3] = tested on: T. saginata and Taenia solium (pork tapeworm) infection; conditions: in vivo; cited from earlier work

**Q.** With `Cc1cc(-c2ccc(/N=N/c3ccc4c(S(=O)(=O)O)cc(S(=O)(=O)O)c(N)c4c3O)c(C)c2)ccc1/N=N/c1ccc2c(S(=O)(=O)O)cc(S(=O)(=O)O)c(N)c2c1O` [EB, Evans Blue] as the compound, how does the “EB ratio of the left (treated) to right (untreated) thigh muscle, average±SD” value ([1]; EB 50 mg/kg i.v. + cluster dispersion 2 ml/kg + Activation and Enhancement US insonation) read?
**A.** 2.0±0.3

**Q.** What about the “EB ratio of the left (treated) to right (untreated) thigh muscle, average±SD” value ([1]; EB 50 mg/kg i.v. + cluster dispersion 2 ml/kg, no US insonation) of the same compound?
**A.** 1.1±0.2

**Q.** What about the “increase in the uptake upon ACT treatment” value [1] of the same compound?
**A.** about 100%

**Q.** And the “increase in the uptake upon ACT treatment” value ([1]; listed as Evans Blue)?
**A.** 100%

**Q.** Which ED50 [2] does the source give for `C[C@H]1COc2c(N3CCN(C)CC3)c(F)cc3c(=O)c(C(=O)O)cn1c23` [LEV, Levofloxacin] here?
**A.** ~24 mg/kg

**Q.** Which cure rates [3] does the source give for `O=C(Nc1ccc([N+](=O)[O-])cc1Cl)c1cc(Cl)ccc1O` [Niclosamide] here?
**A.** approximately 90%
